Each structure is given as a SMILES string. Activity calls are given as the source filed them. The calls are words filed in the database; no cut-off is given here. Where only a bound is given, the exact number is not on record here.

Data set [1] deals with Schistosoma mansoni. The data set can be described thus: Antischistosomal activity against Schistosoma mansoni couples assessed as decrease in pairing stability at 5 uM measured upto 72 hrs by bright field microscopy. Format: functional. Further details: scale not given: the % may be the effect or the level left.
Data set [2] concerns Schistosoma mansoni. In words: Antischistosomal activity against Schistosoma mansoni couples assessed as inhibition of eggs production at 100 uM measured upto 72 hrs by bright field microscopy. It is filed as functional. Further details: scale not given: the % may be the effect or the level left.
The test system of data set [3] is Schistosoma mansoni. The data set can be described thus: Antischistosomal activity against Schistosoma mansoni couples assessed as pairing instability at 100 uM measured upto 72 hrs by bright field microscopy. Format: functional.
Data set [4] deals with HepG2. In words: Cytotoxicity against human HepG2 cells assessed as reduction in cell viability upto 100 uM by WST-1 assay. It is filed as toxicity, cell-based. The settings on record: hepg2, 100 µM. Background: Tetrazolium dyes change colour on reduction, which living cells bring about.
The subject of data set [5] is Schistosoma mansoni. The data set can be described thus: Antischistosomal activity against Schistosoma mansoni couples assessed as decrease in parasite motility at 25 uM measured upto 72 hrs by bright field microscopy. Format: functional. The arrangement: scale not given: the % may be the effect or the level left.
Data set [6] deals with Schistosoma mansoni. In words: Antischistosomal activity against Schistosoma mansoni couples assessed as couple separation at 10 uM measured upto 72 hrs by bright field microscopy. It is filed as functional.
Data set [7] concerns LS174T. In words: Cytotoxicity against human LS174T cells assessed as reduction in cell vaibility upto 100 uM by WST-1 assay. It is filed as toxicity, cell-based.
The subject of data set [8] is Schistosoma mansoni. In words: Antischistosomal activity against Schistosoma mansoni couples assessed as decrease in parasite vitality at 10 uM measured upto 72 hrs by bright field microscopy. It is filed as functional. Further details: scale not given: the % may be the effect or the level left.
Data set [9] deals with LS174T. The data set can be described thus: Cytotoxicity against human LS174T cells assessed as reduction in cell vaibility upto 50 uM by WST-1 assay. Format: toxicity, cell-based.
Data set [10] deals with HepG2. The data set can be described thus: Cytotoxicity against human HepG2 cells assessed as reduction in cell viability upto 50 uM by WST-1 assay. It is filed as toxicity, cell-based. Particulars: hepg2, 50 µM.
Data set [11] relates to Schistosoma mansoni. The data set can be described thus: Antischistosomal activity against Schistosoma mansoni couples at 5 uM measured upto 72 hrs by bright field microscopy. Format: functional, organism-based.
Data set [12] concerns Schistosoma mansoni. In words: Antischistosomal activity against Schistosoma mansoni couples assessed as tegument damage at 100 uM measured upto 72 hrs by bright field microscopy. It is filed as functional, organism-based.
Data set [13] deals with Schistosoma mansoni. The data set can be described thus: Antischistosomal activity against Schistosoma mansoni couples at 25 uM measured upto 72 hrs by bright field microscopy. Format: functional, organism-based.
In data set [14] the test system is Schistosoma mansoni. In words: Antischistosomal activity against Schistosoma mansoni couples assessed as decrease in parasite motility at 100 uM measured upto 72 hrs by bright field microscopy. Format: functional. The arrangement: scale not given: the % may be the effect or the level left.
Data set [15] deals with Schistosoma mansoni. In words: Antischistosomal activity against Schistosoma mansoni couples at 50 uM measured upto 72 hrs by bright field microscopy. It is filed as functional, organism-based.
The test system of data set [16] is HepG2. In words: Cytotoxicity against human HepG2 cells assessed as reduction in cell vaibility at 100 uM by WST-1 assay. The settings on record: hepg2, 100 µM. It is filed as toxicity, cell-based.
Data set [17] has as its system Schistosoma mansoni. The data set can be described thus: Antischistosomal activity against Schistosoma mansoni couples assessed as worm motility at 100 uM treated for 72 hrs and measured at 192 hrs after drug wash-out by bright field microscopy. It is filed as functional.
Data set [18] concerns Schistosoma mansoni. The data set can be described thus: Antischistosomal activity against Schistosoma mansoni couples assessed as decrease in parasite vitality at 15 uM measured upto 72 hrs by bright field microscopy. Format: functional. Further details: scale not given: the % may be the effect or the level left.
Data set [19] deals with Schistosoma mansoni. In words: Antischistosomal activity against Schistosoma mansoni couples assessed as worm motility at 100 uM treated for 72 hrs and measured at 144 hrs after drug wash-out by bright field microscopy. It is filed as functional.
For data set [20], the system named is Schistosoma mansoni. The data set can be described thus: Antischistosomal activity against Schistosoma mansoni couples assessed as worm motility at 50 uM measured after 72 hrs by bright field microscopy. It is filed as functional.
Data set [21] deals with Schistosoma mansoni. In words: Antischistosomal activity against Schistosoma mansoni couples assessed as loss of internal structures at <=10 uM measured upto 72 hrs by bright field microscopy. It is filed as functional, organism-based.
Data set [22] has as its system Schistosoma mansoni. In words: Antischistosomal activity against Schistosoma mansoni couples assessed as worm motility at 100 uM measured after 72 hrs by bright field microscopy. It is filed as functional.
In data set [23] the test system is Schistosoma mansoni. The data set can be described thus: Antischistosomal activity against Schistosoma mansoni couples assessed as reduction in parasite motility at <=10 uM measured upto 72 hrs by bright field microscopy. Further details: scale not given: the % may be the effect or the level left. The settings on record: up to 10 µM. It is filed as functional.

In data set [24] the test system is Schistosoma mansoni. In words: Antischistosomal activity against Schistosoma mansoni couples assessed as worm motility at 50 uM treated for 72 hrs and measured at 144 hrs after drug wash-out by bright field microscopy. It is filed as functional.
The subject of data set [25] is Schistosoma mansoni. The data set can be described thus: Antischistosomal activity against Schistosoma mansoni couples assessed as decrease in parasite motility at 10 uM measured upto 72 hrs by bright field microscopy. It is filed as functional, organism-based.
Data set [26] concerns Schistosoma mansoni. The data set can be described thus: Antischistosomal activity against Schistosoma mansoni couples assessed as reduction in worm motility measured up to 72 hrs by bright field microscopy. It is filed as functional, organism-based.
The subject of data set [27] is LS174T. In words: Cytotoxicity against human LS174T cells assessed as reduction in cell viability at 100 uM by WST-1 assay. It is filed as toxicity, cell-based.
For data set [28], the system named is Schistosoma mansoni. In words: Antischistosomal activity against Schistosoma mansoni couples assessed as gut dilatations at 10 uM measured upto 72 hrs by bright field microscopy. It is filed as functional, organism-based.
In data set [29] the test system is Schistosoma mansoni. The data set can be described thus: Antischistosomal activity against Schistosoma mansoni couples assessed as worm motility at 25 uM treated for 72 hrs and measured at 192 hrs after drug wash-out by bright field microscopy. It is filed as functional.
Data set [30] concerns Schistosoma mansoni. In words: Antischistosomal activity against Schistosoma mansoni couples assessed as gut dilatations at <=10 uM measured upto 72 hrs by bright field microscopy. Format: functional, organism-based.
Data set [31] deals with Schistosoma mansoni. In words: Antischistosomal activity against Schistosoma mansoni couples assessed as tegument damage at <=10 uM measured upto 72 hrs by bright field microscopy. It is filed as functional, organism-based.
For data set [32], the system named is Schistosoma mansoni. In words: Antischistosomal activity against Schistosoma mansoni couples assessed as decrease in pairing stability at 15 uM measured upto 72 hrs by bright field microscopy. Format: functional. The arrangement: scale not given: the % may be the effect or the level left.
Data set [33] relates to Schistosoma mansoni. The data set can be described thus: Antischistosomal activity against Schistosoma mansoni couples assessed as tegument damage at 10 uM measured upto 72 hrs by bright field microscopy. It is filed as functional, organism-based.
For data set [34], the system named is Schistosoma mansoni. The data set can be described thus: Antischistosomal activity against Schistosoma mansoni couples assessed as worm motility at 25 uM treated for 72 hrs and measured at 144 hrs after drug wash-out by bright field microscopy. It is filed as functional.
Data set [35] concerns Schistosoma mansoni. In words: Antischistosomal activity against Schistosoma mansoni couples assessed as inhibition of eggs production at 15 uM measured upto 72 hrs by bright field microscopy. Format: functional. Further details: scale not given: the % may be the effect or the level left.
The subject of data set [36] is Schistosoma mansoni. In words: Antischistosomal activity against Schistosoma mansoni couples assessed as decrease in parasite motility at 15 uM measured upto 72 hrs by bright field microscopy. It is filed as functional. The arrangement: scale not given: the % may be the effect or the level left.
Data set [37] deals with Schistosoma mansoni. In words: Antischistosomal activity against Schistosoma mansoni couples assessed as worm motility at 25 uM measured after 72 hrs by bright field microscopy. Format: functional.
The test system of data set [38] is Schistosoma mansoni. In words: Antischistosomal activity against Schistosoma mansoni couples assessed as loss of internal structures at 10 uM measured upto 72 hrs by bright field microscopy. Format: functional, organism-based.
Data set [39] deals with Schistosoma mansoni. In words: Antischistosomal activity against Schistosoma mansoni couples assessed as reduction in pairing stability measured up to 72 hrs by bright field microscopy. It is filed as functional, organism-based.
Data set [40] relates to Schistosoma mansoni. The data set can be described thus: Antischistosomal activity against Schistosoma mansoni couples assessed as induction of phenotypes at 10 uM measured upto 72 hrs by bright field microscopy. It is filed as functional, organism-based.
The test system of data set [41] is Schistosoma mansoni. In words: Antischistosomal activity against Schistosoma mansoni couples assessed as worm motility at 50 uM treated for 72 hrs and measured at 192 hrs after drug wash-out by bright field microscopy. Format: functional.

As for `CCN(CC)C(=S)SCCN1CCCCC1`, the Activity in the data set with Schistosoma mansoni [1] is recorded as 100%; in the data set on Schistosoma mansoni [2], over 80%; in the data set with Schistosoma mansoni [3], 100%.

Take `CCN(CC)C(=S)SCC1CCCCC1`: the Activity result is given as “Non-Toxic” in the data set on HepG2 [4]; 35% in the data set on Schistosoma mansoni [5]; 60% in the data set with Schistosoma mansoni [6]; “Non-Toxic” in the data set on LS174T [7]; 90% with Schistosoma mansoni [8].

With `CCN(CC)C(=S)SCc1cc(=O)oc2cc(OC)ccc12`, the Activity result in the data set with LS174T [9] and with HepG2 [10] was “Non-Toxic” in each case. For the same compound, the result in the data set with Schistosoma mansoni [11] was Active.

On to `CCN(CC)C(=S)SCc1ccc(S(C)(=O)=O)cc1`, for which the result in the data set with Schistosoma mansoni [12] and with Schistosoma mansoni [15] was Active. For the same compound, the outcome with Schistosoma mansoni [13] was inactive. The Activity in the data set on Schistosoma mansoni [14] is recorded as about 60%.

What is called EC50 is the concentration needed to bring the measured effect to its halfway point. As for `CS(=O)(=O)N1CCN(C(=S)SCc2ccc([N+](=O)[O-])cc2)CC1`, the Activity result in the data set on HepG2 [16] is “Non-Toxic”; in the data set with Schistosoma mansoni [17], 24%; with Schistosoma mansoni [18] it was 90%; with Schistosoma mansoni [19] it was 24%; in the data set on Schistosoma mansoni [20], 31%; in the data set with Schistosoma mansoni [22] it was 31%. For the same compound, the Activity was 50% in the data set on Schistosoma mansoni [23]; 27% in the data set on Schistosoma mansoni [24]; “Non-Toxic” with LS174T [27]; 35% in the data set on Schistosoma mansoni [29]; 20% in the data set with Schistosoma mansoni [32]; 36% in the data set with Schistosoma mansoni [34]. In addition, the Activity with Schistosoma mansoni [35] is given as 40%; in the data set on Schistosoma mansoni [36] it was 50%; with Schistosoma mansoni [37], 35%; with Schistosoma mansoni [41], 28%. Moreover, the outcome in the data set on Schistosoma mansoni [21], in the data set on Schistosoma mansoni [30] and in the data set with Schistosoma mansoni [31] was inactive. For the same compound, the outcome in the data set on Schistosoma mansoni [25], in the data set with Schistosoma mansoni [28], in the data set with Schistosoma mansoni [33], in the data set with Schistosoma mansoni [38] and with Schistosoma mansoni [40] was Active. For the same compound, the EC50 in the data set on Schistosoma mansoni [26] amounted to 9.6 µM; in the data set with Schistosoma mansoni [39], 9.2 µM.

Source of the values: ChEMBL document CHEMBL5331046, “Disulfiram and dithiocarbamate analogues demonstrate promising antischistosomal effects” (Eur J Med Chem, 2022).
